Patent publication US12403132B2, “Methods of treating bone marrow failure syndromes and compositions for use in the same” (The Board of Trustees of the Leland Stanford Junior …, priority 2020, dated 2025)

Tests used:
NLK [1] = target: T1, NLK (Homo sapiens, UniProt Q9UBE8); assay: Kinase Profiling of SD208; type: biochemical; settings: 10 μM; data not shown
T1 sequence (Q9UBE8 1-527): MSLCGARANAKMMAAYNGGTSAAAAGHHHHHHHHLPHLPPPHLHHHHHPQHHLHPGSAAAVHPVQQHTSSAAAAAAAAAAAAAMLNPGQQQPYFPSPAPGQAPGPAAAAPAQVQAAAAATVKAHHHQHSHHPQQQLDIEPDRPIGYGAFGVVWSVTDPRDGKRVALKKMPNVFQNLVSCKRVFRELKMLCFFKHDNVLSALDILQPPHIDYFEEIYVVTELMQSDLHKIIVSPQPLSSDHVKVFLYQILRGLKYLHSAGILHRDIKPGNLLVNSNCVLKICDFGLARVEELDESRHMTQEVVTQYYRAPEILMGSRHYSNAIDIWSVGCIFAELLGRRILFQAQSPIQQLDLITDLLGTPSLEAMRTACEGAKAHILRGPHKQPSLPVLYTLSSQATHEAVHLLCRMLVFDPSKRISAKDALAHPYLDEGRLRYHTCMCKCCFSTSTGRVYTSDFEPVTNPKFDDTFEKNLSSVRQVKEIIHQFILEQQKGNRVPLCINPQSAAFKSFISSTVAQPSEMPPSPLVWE

NLK [2] = assay: Endogenous NLK protein in K562 cells (Western blot); type: cell-based, human; settings: K562, miRNA mimetics or metformin, 72 hrs
Description: (§1) FIG. 14. Metformin-mediated upregulation of miR-26a in human progenitors suppresses NLK expression. (Panel A) Human CD34+ (upper) and murine Lin-Kit+ (lower) progenitors were differentiated for 8 days in the presence or absence of metformin and the levels of indicated miRNAs were assessed by qRT-PCR. (Panel B) K562 cells stably expressing the luciferase gene coupled to the NLK 3′UTR were mock transfected, transfected with indicated miRNA mimetics, or treated with metformin, and cultured in the presence or absence of metformin for 72 hrs. After lysis, luciferase activity was determined and endogenous NLK and GAPDH protein expression was analyzed by Western blot. (Panel C) K562 cells were mock transfected, or transfected with either miR-34 or miR-26 sponges, prior to being left untreated or treated with metformin for 72 hrs. Lysed cells were subjected to luciferase assay and western blotting to examine NLK and GAPDH protein expression. […] Statistics: two-tailed Student's t test, significant *P<0.05
NLK kinase activity was performed as published (5). For Western blotting, antibodies against NLK (#AB97642; Abcam; 1:1000 dilution) and GAPDH (#MAB374; Millipore; 1:10000) were used according to manufacturer's instructions.

SATB1 3′UTR = assay: Luciferase alone or fused to SATB1 3′UTR in K562 cells; type: cell-based, human; settings: K562, 0.5-50 mM, 72 hrs
Description: (§2) FIG. 12. NLK 3′UTR facilitates metformin-mediated NLK suppression. (Panel A) K562 cells stabling expressing luciferase alone (top portion), luciferase expressed behind a minimal promoter and the NLK proximal promoter (2nd portion), luciferase immediately upstream of the human NLK 3′UTR (3rd portion) or luciferase with the SATB1 3′UTR (bottom portion) were grown in the presence of 0, 0.5, 5.0 or 50.0 mM of metformin for 72 hrs. Cell were pelleted and either processed for luciferase assay (left portion) or western blot analysis of endogenous NLK (upper right portion) or GAPDH (lower right portion). (Panel B) Luciferase immediately upstream of the human (upper), murine (middle) and zebrafish (lower) NLK 3′UTR were transiently transfected into human K562 (left) and cultured with indicated concentrations of metformin for 72 hrs. Lysates were assessed for luciferase activity and endogenous NLK and GAPDH protein expression by Western blotting. […] Statistics: two-tailed Student's t test, significant *P<0.05
In parallel with measuring luciferase activity, the response of endogenous NLK protein expression was monitored by Western blot analysis with a high degree of correlation.

[3] = test system: zebrafish (Danio rerio) embryos; assay: Zebrafish rps19 morpholino model, o-dianisidine hemoglobin staining; type: in vivo
Text: (§3) FIG. 11. […] Statistics: two-tailed Student's t test, significant *P<0.05

[4] = test system: miR-26a and other miRNAs (let-7, miR-30, miR-181, miR-199, miR-144); assay: miRNA expression by qRT-PCR in differentiating human CD34+ progenitors; type: cell-based
Description: as §1
FIG. 15. MiR-26a mimetic substitutes for metformin in improving erythropoiesis in RPS19-insufficiency. (Panel A) Human CD34+ cells were transduced with shRNA against a control (shLuc) or RPS19 (shRPS19) and transfected with a miR-26a mimetic or a mock control. After differentiation in the absence or presence of metformin for 12 days, cells were counted and the percentage of CD235+ erythroblasts determined by flow cytometry. The calculated CD235+ population of each treatment group is represented as a percentage of the untreated control group (upper). In parallel, qRT-PCR was performed to determine mRNA expression of NLK (middle) and miR-26a (lower). (Panel B) Lin-Kit+ progenitors for RPL11+/+ and RPL+/lox mice were mock transfected or transfected with miR-26a mimetic and differentiated for 8 days. Cells were subjected to counting and the percentage of Ter119+ erythroblasts determined (upper) in conjunction with qRT-PCR examining NLK (middle) and miR-26a (lower) mRNA expression. […] Statistics: two-tailed Student's t test, significant *P<0.05
(§4) MessengerRNA was quantified as described (5). MicroRNA was quantified using TaqMan® Small RNA Assays (Applied Biosystems) as per manufacturer's directions and normalized to snoRNA.

miRNA species = assay: miRNA expression by qRT-PCR in differentiating murine Lin-Kit+ progenitors; type: cell-based, mouse; settings: metformin
Description: as §1, §4

human NLK 3′UTR = assay: Luciferase fused to human NLK 3′UTR in K562 cells; type: cell-based
Description: as §2
FIG. 14. Metformin-mediated upregulation of miR-26a in human progenitors suppresses NLK expression. (Panel A) Human CD34+ (upper) and murine Lin-Kit+ (lower) progenitors were differentiated for 8 days in the presence or absence of metformin and the levels of indicated miRNAs were assessed by qRT-PCR. […] After lysis, luciferase activity was determined and endogenous NLK and GAPDH protein expression was analyzed by Western blot. […]
The NLK minimal promoter (1019 5′ nucleotides) and or NLK 3′UTR (1885 3′ nucleotides) were cloned upstream, or downstream respectively, of firefly luciferase and transfected into K562 cells. Transfection efficiency was normalized by RFP expression and firefly luciferase activity determined by Luciferase Assay Reagent II (LAR II) from Dual-Luciferase® Reporter (DLR™) Assay System (Promega). Luminescence was assessed using a Synergy™ H1 hybrid multi-mode microplate reader (BioTek®). […]

NLK [5] = assay: NLK expression and NLK activity in murine progenitors; type: cell-based, mouse; settings: control, RPS19- or RPL11-insufficient mice, metformin
Text: as §3

murine NLK 3′UTR = assay: Luciferase fused to murine NLK 3′UTR in K562 cells; type: cell-based, mouse; settings: transient transfection in K562, metformin 72 hrs

SMILES	NLK kinase activity inhibited (NLK [1]) [%]	reduction of endogenous NLK protein expression (NLK [2]) [%]	metformin sensitivity of luciferase alone or fused with SATB1 3′UTR (SATB1 3′UTR)	heart conditions ([3]; 20 mM metformin)	O'dianisidine (hemoglobin) staining ([3]; 20 mM metformin from 4 to 5 hpf, day 3)	miR-26a level ([4]; RPS19-insufficiency) [fold]	miR-26a level ([4]; control) [fold]	upregulation of miR-26a ([4]; human CD34+ progenitors in erythroid media, metformin, 8 days) [fold]	expression of other miRNA species (let-7, miR-30, miR-181, miR-199, miR-144) ([4]; human CD34+ progenitors, metformin)	upregulation of miRNA species (miRNA species)	reduction of luciferase activity (wild-type human NLK 3′UTR) (human NLK 3′UTR; K562, miRNA mimetics or metformin, 72 hrs) [%]	decrease of luciferase (NLK 3′UTR fusion) (human NLK 3′UTR; stable K562, 50 mM metformin, 72 hrs) [%]	decrease of luciferase activity, human 3′UTR (human NLK 3′UTR; transient transfection in K562, metformin 72 hrs) [%]	impact on NLK activity (NLK [5])	impact on NLK expression (NLK [5])	decrease of luciferase activity, murine 3′UTR (murine NLK 3′UTR) [%]
Fc1ccc(Cl)cc1-c1nc(Nc2ccncc2)c2nccnc2n1 [SD208]	96.8															
CN(C)C(=N)N=C(N)N [metformin]		68.6	did not result in metformin sensitivity	persisted	dramatically restored	2.5	2.4	2.4	did not alter	none of the miRNA species examined demonstrated significant upregulation	72.5	67.5	65.4	no impact	no impact	61.6
